Laboratory results taken from patent US11273126B2, “Amorphous dispersion of cyclopropanecarboxylic acid (5-{5-[N′-(2-chloro-6-methylbenzoyl) hydrazinocarbonyl]-2-methyl-phenylethynyl}-pyridin-2-yl) amide” (SUN PHARMA ADVANCED RESEARCH COMPANY LIMITED, priority 2017, dated 2022).

Test: Oral administration to dogs, plasma levels of compound of formula I (bioavailability)
Type: in vivo
Conditions: dog, plasma level of compound of formula I
Procedure: Suitable amount of amorphous dispersion of Example I and the crystalline form of compound of formula I suspended in a vehicle were administered orally to dogs. Blood samples were withdrawn at various time intervals and the plasma levels of compound of formula I were recorded. The Cmax, AUC0 to 1 and AUC0-∞, in plasma are tabulated below.

AUC(0-inf): 388 ng·h/mL | AUC(0-t): 290 ng·h/mL | Cmax: 41 ng/mL
SMILES: Cc1ccc(C(=O)NNC(=O)c2c(C)cccc2Cl)cc1C#Cc1ccc(NC(=O)C2CC2)nc1 [Compound of formula I in a vehicle, cyclopropanecarboxylic acid (5-{5-[N′-(2-chloro-6-methylbenzoyl) hydrazinocarbonyl]-2-methyl-phenylethynyl}-pyridin-2-yl)amide]
